According to ChEMBL document CHEMBL1158381, “Molecular properties of psychopharmacological drugs determining non-competitive inhibition of 5-HT3A receptors” (Eur J Med Chem, 2009):

Molecular target: T1, 5-hydroxytryptamine receptor 3A (Homo sapiens) (UniProt P46098)
T1 sequence (whole entry): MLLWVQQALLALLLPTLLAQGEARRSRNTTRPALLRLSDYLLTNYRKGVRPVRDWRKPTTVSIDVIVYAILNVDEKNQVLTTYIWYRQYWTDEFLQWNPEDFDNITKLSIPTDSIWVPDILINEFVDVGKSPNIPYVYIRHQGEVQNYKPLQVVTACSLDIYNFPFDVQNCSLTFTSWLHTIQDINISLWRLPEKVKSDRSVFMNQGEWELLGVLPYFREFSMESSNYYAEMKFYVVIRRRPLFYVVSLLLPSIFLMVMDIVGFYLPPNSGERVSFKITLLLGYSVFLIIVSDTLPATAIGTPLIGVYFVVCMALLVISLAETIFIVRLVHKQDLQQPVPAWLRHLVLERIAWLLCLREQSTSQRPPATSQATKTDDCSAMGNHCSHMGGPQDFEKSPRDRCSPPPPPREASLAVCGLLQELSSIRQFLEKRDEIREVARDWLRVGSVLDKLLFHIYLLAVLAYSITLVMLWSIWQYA
Experiment: Antagonist activity at human 5HT3A receptor expressed in HEK293 cells assessed as inhibition of serotonin-induced inward Na+ current at >= 10 uM
Format: functional, cell-based

Row | SMILES | inhibition
1 | OCCN1CCN(CCCN2c3ccccc3Sc3ccc(C(F)(F)F)cc32)CC1 | > 50%
2 | NC(=O)N1c2ccccc2CCc2ccccc21 | < 50%
3 | c1ccc2c(c1)Nc1ccccc1S2 | < 50%
4 | NC(=O)N1c2ccccc2C=Cc2ccccc21 | < 50%
5 | O=C(CCCN1CCC(O)(c2ccc(Cl)cc2)CC1)c1ccc(F)cc1 | < 50%
6 | COc1ccc2c(c1)N(C[C@H](C)CN(C)C)c1ccccc1S2 | < 50%
7 | CC(CN(C)C)CN1c2ccccc2CCc2ccccc21 (centres undefined) | > 50%
8 | CSc1ccc2c(c1)N(CCC1CCCCN1C)c1ccccc1S2 (centres undefined) | > 50%
9 | CNCCC(Oc1ccc(C(F)(F)F)cc1)c1ccccc1 (centres undefined) | > 50%
10 | c1ccc2c(c1)CCc1ccccc1C2 | < 50%
11 | CN(C)CCCN1c2ccccc2CCc2ccccc21 | > 50%
12 | c1ccc2c(c1)CCc1ccccc1N2 | > 50%
13 | CCOc1ccccc1O[C@@H](c1ccccc1)[C@@H]1CNCCO1 | > 50%
14 | Cc1nc2n(c(=O)c1CCN1CCC(c3noc4cc(F)ccc34)CC1)CCCC2 | < 50%
15 | O=C(NCCN1CCOCC1)c1ccc(Cl)cc1 | < 50%
16 | c1ccc2nc3ccccc3cc2c1 | < 50%
17 | FC(F)(F)c1ccc2c(c1)Nc1ccccc1S2 | < 50%
18 | CNCCCN1c2ccccc2CCc2ccccc21 | > 50%
19 | OCCN1CCN(CCC=C2c3ccccc3Sc3ccc(C(F)(F)F)cc32)CC1 | > 50%
